Starred links: 1 amine or outer side, 2 acyl side, 3 side chain; linkers in the order of their positions; H or OH if unused. Non-standard residues stand in square brackets, D forms with d. Residues, ends and D or L forms follow the SMILES beside them. *: point of attachment. Pipz(1-CH2CO,4-CH2CH2NH) = O=C(CN1CCN(CCN[*:1])CC1)[*:2]; γGlu = O=C(O)[C@H](CCC(=O)[*:2])N[*:1]; Stearoyl = CCCCCCCCCCCCCCCCCC(=O)*; X1 = CN(CC(=O)C(=O)[*:2])[*:1]; NMeL = CN[C@@H](CC(C)C)C(=O)O; Nle = CCCC[C@H](N)C(=O)O; Orn = NCCC[C@H](N)C(=O)O; Sar = CNCC(=O)O
What was measured:
in vivo = assay: in vivo; set-up: species or system NMRI mice; details: male, NMRI, mouse, iv
Protocol: Example 5: Pharmacokinetics Intravenous (iv) PK in Mouse Pharmacokinetic parameters of the test compounds were determined after intravenous administration to Naval Medical Research Institute (NMRI) mice. Male NMRI mice were obtained either from Charles River (Germany) or from Janvier (France) weighing approximately 30 g to 40 g. Mice were housed in standard cages with light cycle of 12-hour dark and 12-hour light. Standardized food and water were offered ad libitum to the animals during the whole experimental period. The respective peptide was dissolved in 50 mM phosphate buffer (pH 7.4) containing 3.5% mannitol. Intravenous doses of 30 nmol/kg were given via a tail vein. Serial blood samples were collected from the vena saphena into tubes containing EDTA as anticoagulant at different time points up to 48 hours post dosing. After centrifugation for approximately 5 minutes, plasma samples were transferred to 96-well Polymerase Chain Reaction (PCR) plates, immediately frozen and kept at approximately −20° C. until analyzed for plasma concentration by liquid chromatography mass spectrometry (LC-MS/MS). Individual plasma concentration-time profiles were analyzed by a non-compartmental approach, and the resulting pharmacokinetic parameters were determined.

human NMUR2 receptor = human NMUR2 receptor (Homo sapiens, UniProt Q9GZQ4); assay: IP1 Gq HTRF assay, activation of human NMUR2 in buffer; format: cell-based; set-up: expressed in transfected cells; host or cells: CHO-K1; details: selectivity for NMUR2 over NMUR1 from IP1 assay in buffer (Example 3)
How it was run: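 CHO-K1 cells stably expressing human NMUR1 or NMUR2, seeded 24 h before assay, stimulated with peptide agonists (8-point dose-response, 1% DMSO final) in HEPES/HBSS buffer with 50 mM LiCl and 0.1% BSA, pH 7.4, 1 h at 37 °C. IP1 accumulation read by HTRF competition (665/620 nm); EC50 from 4-parameter sigmoidal fit.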

human NMUR2 receptor, sequence (Q9GZQ4 whole entry): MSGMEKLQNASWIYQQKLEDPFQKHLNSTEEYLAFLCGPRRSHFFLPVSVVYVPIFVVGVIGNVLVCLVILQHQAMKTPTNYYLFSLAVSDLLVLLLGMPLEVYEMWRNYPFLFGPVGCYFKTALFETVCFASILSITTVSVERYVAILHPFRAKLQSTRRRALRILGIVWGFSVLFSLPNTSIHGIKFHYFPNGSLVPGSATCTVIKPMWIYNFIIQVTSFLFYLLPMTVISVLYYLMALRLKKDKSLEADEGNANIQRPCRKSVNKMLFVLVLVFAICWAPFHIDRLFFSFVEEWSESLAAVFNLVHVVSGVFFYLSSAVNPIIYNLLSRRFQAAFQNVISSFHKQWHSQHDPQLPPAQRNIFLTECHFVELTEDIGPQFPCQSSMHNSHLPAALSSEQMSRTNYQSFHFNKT

For `CCCCCCCCCCCCCCCCCCCC(=O)N[C@@H](CCC(=O)N[C@@H](CCC(=O)N[C@@H](CCC(=O)N(C)CC(=O)N(C)CC(=O)N(C)CC(=O)N(C)CC(=O)N(C)CC(=O)N(C)CC(=O)N(C)CC(=O)N(C)CC(=O)N(C)CC(=O)N(C)CC(=O)N(C)CC(=O)N(C)CC(=O)N(C)CC(=O)N(C)CC(=O)N(C)CC(=O)NCCN1CCN(CC(=O)N[C@@H](Cc2ccc(O)cc2)C(=O)N[C@@H](Cc2ccccc2)C(=O)N(C)[C@@H](CC(C)C)C(=O)N[C@@H](CCCC)C(=O)N[C@@H](CCCNC(=N)N)C(=O)N2CCC[C@H]2C(=O)N[C@@H](CCCNC(=N)N)C(=O)NCC(N)=O)CC1)C(=O)O)C(=O)O)C(=O)O` [Ref. 3, C20A-gGlu3-Sar15-AEPipAc-Tyr-Phe-NMeLeu-Nle-Orn-Pro-Arg-Gly-NH2, reference compound] (HELM PEPTIDE1{[CCCCCCCCCCCCCCCCCCCC(=O)[*:2]].[gGlu].[gGlu].[gGlu].[Sar].[Sar].[Sar].[Sar].[Sar].[Sar].[Sar].[Sar].[Sar].[Sar].[Sar].[Sar].[Sar].[Sar].[Sar].[O=C(CN1CCN(CCN[*:1])CC1)[*:2]].Y.F.[meL].[Nle].R.P.R.G.[am]}$$$$V2.0), the MRT (in vivo) was 1.7 h and the “EC50 (hNMUR1)/EC50 (hNMUR2)” value (human NMUR2 receptor) was 6.1.
In the case of `CCCCCCCCCCCCCCCCCC(=O)N[C@@H](CCC(=O)N[C@@H](CCC(=O)N[C@@H](CCC(=O)N(C)CC(=O)C(=O)N[C@@H](CCC(=O)N(C)CC(=O)N(C)CC(=O)N(C)CC(=O)N(C)CC(=O)N(C)CC(=O)N(C)CC(=O)N(C)CC(=O)N(C)CC(=O)N(C)CC(=O)NCCN1CCN(CC(=O)N[C@@H](Cc2ccc(O)cc2)C(=O)N[C@@H](Cc2ccccc2)C(=O)N(C)[C@@H](CC(C)C)C(=O)N[C@@H](CCCC)C(=O)N[C@@H](CCCN)C(=O)N2CCC[C@H]2C(=O)N[C@@H](CCCNC(=N)N)C(=O)NCC(N)=O)CC1)C(=O)O)C(=O)O)C(=O)O)C(=O)O` [Ref. 5, C18A-gGlu3-Sar12-AEPipAc-Tyr-Phe-NMeLeu-Nle-Orn-Pro-Arg-Gly-NH2, reference compound] ({Stearoyl-γGlu-γGlu-γGlu}-[X1][γGlu][Sar][Sar][Sar][Sar][Sar][Sar][Sar][Sar][Sar][Pipz(1-CH2CO,4-CH2CH2NH)]YF[NMeL][Nle][Orn]PRG-NH2), the MRT (in vivo) is reported as 2.2 h and the “EC50 (hNMUR1)/EC50 (hNMUR2)” value (human NMUR2 receptor) is reported as 7.9.
With `CCCCCCCCCCCCCCCCCC(=O)N[C@@H](CCC(=O)N[C@@H](CCC(=O)N[C@@H](CCC(=O)N(C)CC(=O)N(C)CC(=O)N(C)CC(=O)N(C)CC(=O)N(C)CC(=O)N(C)CC(=O)N(C)CC(=O)N(C)CC(=O)N(C)CC(=O)N(C)CC(=O)N(C)CC(=O)N(C)CC(=O)N(C)CC(=O)N(C)CC(=O)N(C)CC(=O)NCCN1CCN(CC(=O)N[C@@H](Cc2ccc(O)cc2)C(=O)N[C@@H](Cc2ccccc2)C(=O)N(C)[C@@H](CC(C)C)C(=O)N[C@@H](CCCC)C(=O)N[C@@H](CCCNC(=N)N)C(=O)N2CCC[C@H]2C(=O)N[C@@H](CCCNC(=N)N)C(=O)NCC(N)=O)CC1)C(=O)O)C(=O)O)C(=O)O` [Ref. 1, C18A-gGlu3-Sar15-AEPipAc-Tyr-Phe-NMeLeu-Nle-Arg-Pro-Arg-Gly-NH2, reference compound] (HELM PEPTIDE1{[CCCCCCCCCCCCCCCCCC(=O)[*:2]].[gGlu].[gGlu].[gGlu].[Sar].[Sar].[Sar].[Sar].[Sar].[Sar].[Sar].[Sar].[Sar].[Sar].[Sar].[Sar].[Sar].[Sar].[Sar].[O=C(CN1CCN(CCN[*:1])CC1)[*:2]].Y.F.[meL].[Nle].R.P.R.G.[am]}$$$$V2.0) the MRT (in vivo) was 0.8 h and the “EC50 (hNMUR1)/EC50 (hNMUR2)” value (human NMUR2 receptor) was 4.3.
In the case of `CCCC[C@H](NC(=O)[C@H](CC(C)C)NC(=O)[C@H](Cc1ccccc1)NC(=O)[C@H](Cc1ccc(O)cc1)NC(=O)CN1CCN(CCNC(=O)CN(C)C(=O)CN(C)C(=O)CN(C)C(=O)CN(C)C(=O)CN(C)C(=O)CN(C)C(=O)CN(C)C(=O)CN(C)C(=O)CN(C)C(=O)CC[C@H](NC(=O)C(=O)CN(C)C(=O)CC[C@H](NC(=O)CC[C@H](NC(=O)CC[C@H](NC(=O)CCCCCCCCCCCCCCCCC(=O)O)C(=O)O)C(=O)O)C(=O)O)C(=O)O)CC1)C(=O)N[C@@H](CCCN)C(=O)N1CCC[C@H]1C(=O)N[C@@H](CCCNC(=N)N)C(=O)NCC(N)=O` [Ref. 6, C18DA-gGlu3-Sar12-AEPipAc-Tyr-Phe-Leu-Nle-Orn-Pro-Arg-Gly-NH2, reference compound], the MRT (in vivo) is reported as 4.2 h and the “EC50 (hNMUR1)/EC50 (hNMUR2)” value (human NMUR2 receptor) is reported as 32.4.
For `CCCC[C@H](NC(=O)[C@H](CC(C)C)N(C)C(=O)[C@H](Cc1ccccc1)NC(=O)[C@H](Cc1ccc(O)cc1)NC(=O)CN1CCN(CCNC(=O)CN(C)C(=O)CN(C)C(=O)CN(C)C(=O)CN(C)C(=O)CN(C)C(=O)CN(C)C(=O)CN(C)C(=O)CN(C)C(=O)CN(C)C(=O)CN(C)C(=O)CN(C)C(=O)CN(C)C(=O)CN(C)C(=O)CN(C)C(=O)CN(C)C(=O)CC[C@H](NC(=O)CC[C@H](NC(=O)CC[C@H](NC(=O)CCCCCCCCCCCCCCCCCCC(=O)O)C(=O)O)C(=O)O)C(=O)O)CC1)C(=O)N[C@@H](CCCNC(=N)N)C(=O)N1CCC[C@H]1C(=O)N[C@@H](CCCNC(=N)N)C(=O)NCC(N)=O` [Ref. 4, C20DA-gGlu3-Sar15-AEPipAc-Tyr-Phe-Leu-Nle-Orn-Pro-Arg-Gly-NH2, reference compound] (HELM PEPTIDE1{[O=C(O)CCCCCCCCCCCCCCCCCCC(=O)[*:2]].[gGlu].[gGlu].[gGlu].[Sar].[Sar].[Sar].[Sar].[Sar].[Sar].[Sar].[Sar].[Sar].[Sar].[Sar].[Sar].[Sar].[Sar].[Sar].[O=C(CN1CCN(CCN[*:1])CC1)[*:2]].Y.F.[meL].[Nle].R.P.R.G.[am]}$$$$V2.0), the MRT (in vivo) was 22.5 h and the “EC50 (hNMUR1)/EC50 (hNMUR2)” value (human NMUR2 receptor) was 25.0.
`CCCC[C@H](NC(=O)[C@H](CC(C)C)N(C)C(=O)[C@H](Cc1ccccc1)NC(=O)[C@H](Cc1ccc(O)cc1)NC(=O)CN1CCN(CCNC(=O)CN(C)C(=O)CN(C)C(=O)CN(C)C(=O)CN(C)C(=O)CN(C)C(=O)CN(C)C(=O)CN(C)C(=O)CN(C)C(=O)CN(C)C(=O)CN(C)C(=O)CN(C)C(=O)CN(C)C(=O)CN(C)C(=O)CN(C)C(=O)CN(C)C(=O)CC[C@H](NC(=O)CC[C@H](NC(=O)CC[C@H](NC(=O)CCCCCCCCCCCCCCCCC(=O)O)C(=O)O)C(=O)O)C(=O)O)CC1)C(=O)N[C@@H](CCCNC(=N)N)C(=O)N1CCC[C@H]1C(=O)N[C@@H](CCCNC(=N)N)C(=O)NCC(N)=O` [Ref. 2, C18DA-gGlu3-Sar15-AEPipAc-Tyr-Phe-Leu-Nle-Arg-Pro-Arg-Gly-NH2, reference compound] (HELM PEPTIDE1{[O=C(O)CCCCCCCCCCCCCCCCC(=O)[*:2]].[gGlu].[gGlu].[gGlu].[Sar].[Sar].[Sar].[Sar].[Sar].[Sar].[Sar].[Sar].[Sar].[Sar].[Sar].[Sar].[Sar].[Sar].[Sar].[O=C(CN1CCN(CCN[*:1])CC1)[*:2]].Y.F.[meL].[Nle].R.P.R.G.[am]}$$$$V2.0) gave an MRT (in vivo) of 7.9 h.

Source: US20240279278A1, “NMU RECEPTOR 2 AGONISTS” (Boehringer Ingelheim International GmbH, priority 2023, published 2024)
